Source: US5010086A, “Imidazopyridines, compositions and use” (Sterling Drug Inc., priority 1990, dated 1991)

Columns and labels:
Format in all cases: biochemical, canine
PDE I [1] = assay: phosphodiesterase inhibition, PDE I (peak I PDE); conditions: for IC50: peak I PDE
From the text: (§1) Multiple isozymic forms of cyclic nucleotide phosphodiesterase (PDE) exist in most tissues. […] A "low Km" cGMP form of PDE (also referred to as peak I PDE) also has been identified. Increases in cAMP and cGMP will relax both vascular smooth and bronchial smooth muscle. Selective PDE isozyme inhibition represents a novel subcellular mechanism by which increses in cAMP or cGMP and subsequent vaso- or broncho-relaxation may be achieved. Moreover, a component of positive inotropy may be retained, dependent upon the isozyme or tissue source specificity of an inhibitor. Thus, development of PDE isozyme inhibitors represents novel approaches for the discovery of agents useful for treating hypertension, congestive heart failure or asthma. For example, compounds having essentially high PDE III inhibitory activity are expected to have cardiotonic and vasodilatory (antihypertensive) activity. PDE isozymes (peak I and III) are isolated from canine aortic smooth, ventricular or tracheal smooth muscle sources by DEAE - cellulose column chromatography. Inhibition of both peaks by a putative inhibitor from any of these sources is quantitated. If ≥50% inhibition is detected at 30 μM, then an IC50 value and corresponding 95% confidence limits for both peaks is determined.
(§2) The procedures for the separation of the isozymes of PDE from animal tissue and the testing of the compounds of the invention for phosphodiesterase inhibition are essentially those described by Weishaar et al., Biochem. Pharmacol. 35:787-800 (1986) and Thompson et al., Adv. Cyclic Nucleotide Res. 10:69-92. Initial screening of test compounds with both peak I and peak III PDE isozymes is done at a concentration of 10, 30 or 100 μm, and each assay is performed in triplicate for each inhibitor. The IC50 values (concentration causing 50% inhibition) are then calculated from concentration-response curves as described by Tallarida and Murray, Manual of Pharmacologic Calculations with Computer Programs, Procedure 8, Graded Dose-Response, pp. 14-19, Springer-Verlag, New York, 1981.

PDE III [2] = target: T1, PDE III (Canis lupus familiaris, UniProt A0A8I3NYE0); assay: phosphodiesterase inhibition, PDE III (peak III PDE)
T1 construct: isolated from canine aortic smooth, ventricular or tracheal smooth muscle sources; from tissue; host or cells: canine aortic smooth, ventricular or tracheal smooth muscle; DEAE-cellulose peak III
T1 sequence (A0A8I3NYE0 1-1135): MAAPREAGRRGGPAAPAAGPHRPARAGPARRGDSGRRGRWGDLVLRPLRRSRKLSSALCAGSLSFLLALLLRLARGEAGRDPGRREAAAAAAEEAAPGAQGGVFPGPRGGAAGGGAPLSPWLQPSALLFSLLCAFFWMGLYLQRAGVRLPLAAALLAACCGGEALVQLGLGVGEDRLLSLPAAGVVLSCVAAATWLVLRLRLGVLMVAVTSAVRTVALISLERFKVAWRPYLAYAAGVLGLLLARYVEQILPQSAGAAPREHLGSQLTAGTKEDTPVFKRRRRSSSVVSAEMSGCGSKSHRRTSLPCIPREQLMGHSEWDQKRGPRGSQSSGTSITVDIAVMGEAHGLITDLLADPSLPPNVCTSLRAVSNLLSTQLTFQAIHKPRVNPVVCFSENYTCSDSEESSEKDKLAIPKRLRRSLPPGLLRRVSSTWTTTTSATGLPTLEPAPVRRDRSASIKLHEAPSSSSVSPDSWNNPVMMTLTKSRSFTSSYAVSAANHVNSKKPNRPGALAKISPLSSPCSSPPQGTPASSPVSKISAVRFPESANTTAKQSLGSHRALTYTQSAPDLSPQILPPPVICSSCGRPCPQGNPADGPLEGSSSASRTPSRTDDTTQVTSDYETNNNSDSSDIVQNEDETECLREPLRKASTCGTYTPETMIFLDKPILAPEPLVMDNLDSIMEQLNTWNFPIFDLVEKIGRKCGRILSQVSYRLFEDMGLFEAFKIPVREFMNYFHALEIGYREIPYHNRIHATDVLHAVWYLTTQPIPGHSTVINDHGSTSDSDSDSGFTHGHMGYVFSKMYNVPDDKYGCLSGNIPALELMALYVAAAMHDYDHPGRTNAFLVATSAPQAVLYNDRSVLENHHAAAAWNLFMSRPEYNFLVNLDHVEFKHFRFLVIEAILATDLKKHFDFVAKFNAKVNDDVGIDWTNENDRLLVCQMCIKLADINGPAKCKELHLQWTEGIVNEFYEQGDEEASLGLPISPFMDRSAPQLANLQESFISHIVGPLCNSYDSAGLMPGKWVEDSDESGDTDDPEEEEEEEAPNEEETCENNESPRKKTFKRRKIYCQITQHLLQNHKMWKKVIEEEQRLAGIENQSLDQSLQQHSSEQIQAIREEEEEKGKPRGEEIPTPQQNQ
From the text: as §1, §2

PDE I [3] = assay: phosphodiesterase inhibition, PDE I (peak I PDE)
PDE III [4] = target: T1, PDE III; assay: phosphodiesterase inhibition, PDE III (peak III PDE); conditions: read-out: Percent Inhibition PDE III

SMILES	IC50 (PDE I [1]) [µM]	IC50 (PDE III [2]) [µM]	also measured
O=c1[nH]c2cc(-c3ccncc3)c(C(F)(F)F)nc2[nH]1 [1(e), 1,3-Dihydro-6-(4-pyridinyl)-5-trifluoromethyl-2H-imidazo[4,5-b]pyridin-2-one]	52.9	0.023	
O=c1[nH]c2cc(-c3cc[n+]([O-])cc3)c(C(F)(F)F)nc2[nH]1 [1(f), 1,3-Dihydro-6-(4-pyridinyl)-5-trifluoromethyl-2H-imidazo[4,5-b]pyridin-2-one N-(py)-oxide]		0.029	Percent Inhibition PDE I (PDE I [3]; at 1 μM): 0%
O=c1[nH]c2cc(-c3ccncc3)c(C(F)(F)C(F)(F)F)nc2[nH]1 [2(d), 1,3-Dihydro-6-(4-pyridinyl)-5-pentafluoroethyl-2H-imidazo[4,5-b]pyridin-2-one]	12	1.8	
O=c1[nH]c2cc(-c3ccnc4ccccc34)c(C(F)(F)F)nc2[nH]1 [3(e), 1,3-Dihydro-6-(4-quinolinyl)-5-trifluoromethyl-2H-imidazo[4,5-b]pyridine-2-one]			Percent Inhibition PDE I (PDE I [1]; at 100 μM): 4%; inhibition at 1 µM (PDE III [4]): 9%
Cc1nc2[nH]c(=O)[nH]c2cc1-c1ccccc1 [4(c), 1,3-Dihydro-5-methyl-6-phenyl-2H-imidazo[4,5-b]pyridin-2-one]		0.27	Percent Inhibition PDE I (PDE I [3]; at 1000 μM): 38%
Cc1nc2[nH]c(=O)[nH]c2cc1-c1ccc([N+](=O)[O-])cc1 [Example 5, 1,3-Dihydro-5-methyl-6-(4-nitrophenyl)-2H-imidazo[4,5-b]pyridin-2-one]		0.009	Percent Inhibition PDE I (PDE I [3]; at 300 μM): 35%
Cc1nc2[nH]c(=O)[nH]c2cc1-c1ccc(N)cc1 [Example 6, 6-(4-Aminophenyl)-1,3-dihydro-5-methyl-2H-imidazo[4,5-b]pyridin-2-one]	45	0.5	
Cc1nc2[nH]c(=O)[nH]c2cc1-c1ccc(NC(=O)C(F)(F)F)cc1 [Example 7, 1,3-Dihydro-5-methyl-6-[4-(trifluoroacetylamino)phenyl]-2H-imidazo[4,5-b]pyridin-2-one]	63.6	0.63	
CC(=O)Nc1ccc(-c2cc3[nH]c(=O)[nH]c3nc2C)cc1 [Example 8, 6-[4-(Acetylamino)phenyl]-1,3-dihydro-5-methyl-2H-imidazo[4,5-b]pyridin-2-one]		0.62	Percent Inhibition PDE I (PDE I [1]; at 30 μM): 22%
Cc1nc2[nH]c(=O)[nH]c2cc1-c1ccc(NS(C)(=O)=O)cc1 [Example 9, 1,3-Dihydro-6-[4-(methanesulfonylamino)phenyl]-5-methyl-2H-imidazo[4,5-b]pyridin-2-one]	45	0.47	
CCCCS(=O)(=O)Nc1ccc(-c2cc3[nH]c(=O)[nH]c3nc2C)cc1 [Example 10, 6-[4-(Butanesulfonylamino)phenyl]-1,3-dihydro-5-methyl-2H-imidazo[4,5-b]pyridin-2-one]	9	0.094	
CCCCC(=O)Nc1ccc(-c2cc3[nH]c(=O)[nH]c3nc2C)cc1 [Example 11, 6-[4-(Butanecarbonylamino)phenyl]-1,3-dihydro-5-methyl-2H-imidazo[4,5-b]pyridin-2-one]			Percent Inhibition PDE I (PDE I [3]; at 1 μM): 0%; inhibition at 1 µM (PDE III [4]): 37%
Cc1ccc(S(=O)(=O)Nc2ccc(-c3cc4[nH]c(=O)[nH]c4nc3C)cc2)cc1 [Example 12, 1,3-Dihydro-5-methyl-6-[4-(p-toluenesulfonylamino)phenyl]-2H-imidazo[4,5-b]pyridin-2-one]			Percent Inhibition PDE I (PDE I [3]; at 1 μM): 13%; inhibition at 1 µM (PDE III [4]): 64%
CCCCCCS(=O)(=O)Nc1ccc(-c2cc3[nH]c(=O)[nH]c3nc2C)cc1 [Example 13, 1,3-Dihydro-6-[4-(hexanesulfonylamino)phenyl]-5-methyl-2H-imidazo[4,5-b]pyridin-2-one]	5.6	0.053	
Cc1nc2[nH]c(=O)[nH]c2cc1-c1ccc(NS(=O)(=O)c2cccc3cccnc23)cc1 [Example 14, 1,3-Dihydro-6-[4-(8-quinolinylsulfonylamino)phenyl]-5-methyl-2H-imidazo[4,5-b]pyridin-2-one]	1.6	0.055	
CCCNC(=O)Nc1ccc(-c2cc3[nH]c(=O)[nH]c3nc2C)cc1 [Example 15, 1,3-Dihydro-6-[4-(N'-propylureido)phenyl]-5-methyl-2H-imidazo[4,5-b]pyridin-2-one]	319	0.104	
